From article PMC7377239, “Cardiovascular Effects of Polychlorinated Biphenyls and Their Major Metabolites” (Environmental Health Perspectives, 2020)
Like-named read-outs stand apart in the source and are kept apart here.

Tested on: iCell cardiomyocytes (human iPSC-derived cardiomyocytes)
Assay: Intracellular Ca2+ flux / beating parameters in iCell cardiomyocytes (FLIPR tetra), 90 min or 24 h
Format: cell-based
Details: for activity at 0.01 µM / activity at 0.1 µM / activity at 1 µM / activity at 10 µM / activity at 100 µM: Homo sapiens, Cardiomyocyte, 0.00 µM = 100.00; for activity at 0.1 µM: 0.10 µM
Procedure, shortened: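 PODs were defined as the concentration crossing one SD of the vehicle-control means (0.5% DMSO) on four-parameter logistic fits of Ca2+ trace metrics (peak height, frequency, peak-spacing CV, decay/rise ratio). Traces came from 100 s, 8 Hz FLIPR reads at 37 °C on calcium-dye-loaded iCell cardiomyocytes. Before reading, cells were treated for 90 min or 24 h from 5× chemical plates spanning 0.05–500 µM, in triplicate.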

[1] = 1.5 h, read-out: cm.amp.avg.90min
[2] = 1.5 h, read-out: cm.amp.cv.90min
[3] = 1.5 h, read-out: cm.decay.rise.90min
[4] = 1.5 h, read-out: cm.spacing.cv.90min
[5] = 24 h, read-out: cm.amp.avg.24hrs
[6] = 24 h, read-out: cm.amp.cv.24hrs
[7] = 24 h, read-out: cm.decay.rise.24hrs
[8] = 24 h, read-out: cm.spacing.cv.24hrs

## Oc1ccc(-c2ccc(Cl)cc2)cc1 [4'-OH PCB3]
[1]
  activity at 0.01 µM: 95.4%
  activity at 0.1 µM: 101%
  activity at 1 µM: 105%
  activity at 10 µM: 97.2%
  activity at 100 µM: 0%
[2]
  activity at 0.01 µM: 111%
  activity at 0.1 µM: 107%
  activity at 1 µM: 100%
  activity at 10 µM: 100%
  activity at 100 µM: 0%
1.5 h, read-out: cm.bpm.90min
  activity at 0.01 µM: 97.8%
  activity at 0.1 µM: 100%
  activity at 1 µM: 104%
  activity at 10 µM: 118%
  activity at 100 µM: 0%
[3]
  activity at 0.01 µM: 97.5%
  activity at 0.1 µM: 97.1%
  activity at 1 µM: 95.9%
  activity at 10 µM: 89.6%
  activity at 100 µM: 0%
[4]
  activity at 0.01 µM: 120%
  activity at 0.1 µM: 108%
  activity at 1 µM: 106%
  activity at 10 µM: 116%
  activity at 100 µM: 0%
[5]
  activity at 0.01 µM: 91%
  activity at 0.1 µM: 31.1%
  activity at 1 µM: 32%
  activity at 10 µM: 54.4%
  activity at 100 µM: 0%
[6]
  activity at 0.01 µM: 37.2%
  activity at 0.1 µM: 82.3%
  activity at 1 µM: 67.1%
  activity at 10 µM: 55%
  activity at 100 µM: 0%
24 h, read-out: cm.bpm.24hrs
  activity at 0.01 µM: 53.5%
  activity at 0.1 µM: 54.4%
  activity at 1 µM: 49.6%
  activity at 10 µM: 48.7%
  activity at 100 µM: 0%
[7]
  activity at 0.01 µM: 43%
  activity at 0.1 µM: 43.8%
  activity at 1 µM: 51%
  activity at 10 µM: 58.5%
  activity at 100 µM: 0%
[8]
  activity at 0.01 µM: 53.2%
  activity at 0.1 µM: 53.7%
  activity at 1 µM: 47.2%
  activity at 10 µM: 51.4%
  activity at 100 µM: 0%

## COc1ccc(-c2ccc(Cl)cc2)cc1 [4'-OMe PCB3]
[1]
  activity at 0.01 µM: 96.9%
  activity at 0.1 µM: 93.5%
  activity at 1 µM: 106%
  activity at 10 µM: 103%
  activity at 100 µM: 83.2%
[2]
  activity at 0.01 µM: 88.9%
  activity at 0.1 µM: 102%
  activity at 1 µM: 117%
  activity at 10 µM: 96%
  activity at 100 µM: 175%
1.5 h, read-out: cm.bpm.90min
  activity at 0.01 µM: 103%
  activity at 0.1 µM: 100%
  activity at 1 µM: 96.5%
  activity at 10 µM: 107%
  activity at 100 µM: 208%
[3]
  activity at 0.01 µM: 99.4%
  activity at 0.1 µM: 102%
  activity at 1 µM: 95%
  activity at 10 µM: 95.2%
  activity at 100 µM: 94.6%
[4]
  activity at 0.01 µM: 117%
  activity at 0.1 µM: 99.4%
  activity at 1 µM: 92%
  activity at 10 µM: 96.4%
  activity at 100 µM: 140%
[5]
  activity at 0.01 µM: 135%
  activity at 0.1 µM: 30.6%
  activity at 1 µM: 81.2%
  activity at 10 µM: 94.7%
  activity at 100 µM: 30.7%
[6]
  activity at 0.01 µM: 92.2%
  activity at 0.1 µM: 60.1%
  activity at 1 µM: 110%
  activity at 10 µM: 93.1%
  activity at 100 µM: 58%
24 h, read-out: cm.bpm.24hrs
  activity at 0.01 µM: 111%
  activity at 0.1 µM: 50.6%
  activity at 1 µM: 95.5%
  activity at 10 µM: 119%
  activity at 100 µM: 81.2%
[7]
  activity at 0.01 µM: 98%
  activity at 0.1 µM: 49%
  activity at 1 µM: 98.7%
  activity at 10 µM: 90.5%
  activity at 100 µM: 38.5%
[8]
  activity at 0.01 µM: 116%
  activity at 0.1 µM: 49.7%
  activity at 1 µM: 85.6%
  activity at 10 µM: 112%
  activity at 100 µM: 76.1%

## COc1ccc(-c2ccc(Cl)cc2)cc1 [4'-OMe-PCB 3, 4′-methoxy-4-chlorobiphenyl]
iPSC-CMs, concentration-response 0.01-100 μM, 90 min and 24 h
  inotropic effect (cell beating parameters): positive inotropic effects
